Source: US5594004A, “Compound with platelet aggregation inhibitor activity” (Meiji Seika Kabushiki Kaisha, priority 1993, dated 1997)
Structures can show the parent of a compound that is named as a salt.

system: human PRP (platelet rich plasma); assay: Pharmacological test 1: inhibition of ADP-induced platelet aggregation in human PRP; assay type: cell-based; details: Homo sapiens, Platelet, platelet aggregation, ADP 5 μM inducer
Description: Pharmacological test 1 Inhibition of platelet aggregation
The effect of the compound according to the present invention on inhibiting the platelet aggregation was examined with human PRP (platelet rich plasma).
Nine volumes of a blood sample was taken out of the vein of a normal human with a syringe in which one volume of a 3.8% sodium citrate solution was charged. The blood sample was centrifuged at 170×g at room temperature for 10 minutes. The supernatant thus obtained was isolated as PRP. The residual blood sample that PRP had been taken out was centrifuged at 2,700×g for 15 minutes. The supernatant was then taken as platelet poor plasma (PPP).
Platelet aggregation test was conducted with an aggligometer (PAM-8C; manufactured by MEBANICKS Co., Ltd.). Compounds to be tested were dissolved in a 50% DMSO saline, a 50% methanol saline or physiological saline. The compound and PRP were preincubated for 2 minutes. The ADP (CHRONO-PAR REAGENTS 384 ADP, CHRONO-LOG Corp.) was used as an inducer in the form of a dilution with saline so that the final concentration is 5 μM.
Anti-platelet aggregation activity was obtained as an inhibition rate to platelet aggregation effect of ADP in the absence of a compound to be tested as follows: [formula] Physiological test 2 Inhibition of fibrinogen bonding to platelet GPIIb/IIIa

SMILES | IC50
O=C(O)COc1ccc(C(=O)CNC(=O)c2cc3c(s2)CCNC3)c(OCC(=O)O)c1 [Example 25, [[4-[[[(4,5,6,7-tetrahydrothieno[3.2-c]pyridin-2-yl)carbonyl]amino]acetyl]-m-phenylene]dioxy]diacetic acid trifluoroacetate] | 1500 nM
COc1cc(C(=O)CNC(=O)c2cc3c(s2)CCNC3)ccc1OCC(=O)O [Example 26, 4-[[4,5,6,7-tetrahydrothieno[3.2-c]pyridin-2-yl)carbonyl]aminoacetyl]-2-methoxyphenoxyacetic acid trifluoroacetate] | 1000 nM
O=C(O)COc1ccc(C(=O)CNC(=O)c2sc3c(c2Cc2ccccc2)CNCC3)cc1OCC(=O)O [Example 28, [[4-[[[(3-benzyl-4,5,6,7-tetrahydrothieno[3.2-c]pyridin-2-yl)carbonyl]amino]acetyl]-o-phenylene]dioxy]diacetic acid trifluoroacetate] | > 10000 nM
O=C(O)COc1ccc(C(=O)CNC(=O)c2cc3c(s2)CCCNC3)cc1OCC(=O)O [Example 30, [[4-[[[(5,6,7,8-tetrahydro-4H-thieno[3.2-c]azepin-2-yl)carbonyl]amino]acetyl]-o-phenylene]dioxy]diacetic acid trifluoroacetate] | 1900 nM
O=C(O)COc1ccc(C(=O)CNC(=O)c2cc3c(s2)CCNCC3)cc1OCC(=O)O [Example 31, [[4-[[[(5,6,7,8-tetrahydro-4H-thieno[2,3-d]azepin-2-yl)carbonyl]amino]acetyl]-o-phenylene]dioxy]diacetic acid trifluoroacetate] | 150 nM
O=C(O)COc1ccc(C(=O)NCC(=O)c2cc3c(s2)CCNC3)cc1OCC(=O)O [Example 32, [[4-[N-[(4,5,6,7-tetrahydrothieno[3,2-c]pyridin-2-yl)carbonyl]methyl]carbamoyl]-o-phenylene]dioxy]diacetic acid trifluoroacetate] | 480 nM
CCOC(=O)COc1ccc(CCNC(=O)c2cc3c(s2)CCNC3)cc1OCC(=O)OCC [Example 33, Diethyl [[4-[[2-[(4,5,6,7-tetrahydrothieno[3,2-c]pyridin-2-yl)carbonyl]amino]ethyl]-o-phenylene]dioxy]diacetate trifluoroacetate] | 1700 nM
CCOC(=O)COc1ccc(C(=O)CNC(=O)c2cc3c(s2)CCNC3)cc1OCC(=O)OCC [Example 34, Diethyl [[4-[[[(4,5,6,7-tetrahydrothieno[3,2-c]pyridin2-yl)carbonyl]amino]acetyl]-o-phenylene]dioxy]diacetate trifluoroacetate] | 930 nM
O=C(O)COc1ccc(C(=O)CNC(=O)CCCC2CCNCC2)cc1OCC(=O)O [Example 36, [[4-[[N-[4-(piperidin-4-yl)butyryl]amino]acetyl]-o-phenylene]dioxy]diaceticacid trifluoroacetate] | 9000 nM
CN(CC(=O)c1ccc(OCC(=O)O)c(OCC(=O)O)c1)C(=O)CC1CCNCC1 [Example 37, [[4-[[N-[2-(piperidin-4-yl)acetyl]-N-methylamino]acetyl]-o-phenylene]dioxy]diacetic acid trifluoroacetate] | 4900 nM
O=C(O)CCc1ccc(C(=O)CNC(=O)CCC2CCNCC2)cc1 [Example 38, 3-[4-[N-[3-(piperidin-4-yl)propionyl]amino]acetyl]phenylpropionic acid trifluoroacetate] | 8000 nM
O=C(O)COc1ccc(CCNC(=O)c2cc3c(s2)CCNC3)cc1 [Example 39, 4-[2-[[(4,5,6,7-tetrahydrothieno[3,2-c]pyridin-2-yl)carbonyl]amino]ethyl]phenoxyacetic acid trifluoroacetate] | 260 nM
O=C(O)COc1ccc(CCNCc2cc3c(s2)CCNC3)cc1OCC(=O)O [Example 40, [[4-[2-[N-[(4,5,6,7-tetrahydrothieno[3,2-c]pyridin-2-yl)methyl]amino]ethyl]-o-phenylene]dioxy]diacetic acid trifluoroacetate] | 4000 nM
CC(=O)N(CCc1ccc(OCC(=O)O)c(OCC(=O)O)c1)Cc1cc2c(s1)CCNC2 [Example 41, [[4-[2-[N-[(4,5,6,7-tetrahydrothieno[3,2-c]pyridin-2-yl)methyl]-N-acetylamino]ethyl]-o-phenylene]dioxy]diacetic acid trifluoroacetate] | 3300 nM
Cc1oc(=O)oc1COC(=O)COc1ccc(C(=O)CNC(=O)c2cc3c(s2)CCNC3)cc1OCC(=O)OCc1oc(=O)oc1C [Example 42, Di-(5-methyl-2-oxodioxol-4-yl)methyl [[4-[[(4,5,6,7-tetrahydrothieno[3,2-c]pyridin-2-yl)-carbonyl]amino]acetyl]-o-phenylene]dioxy]diacetic acid trifluoroacetate] | 340 nM
O=C(O)COc1ccc(-c2cnc(CCC3CCNCC3)o2)cc1OCC(=O)O [Example 43, [[4-[2-[2-(piperidin-4-yl)ethyl]oxazol-5-yl]-o-phenylene]dioxy]diacetic acid 1/2 sulfate] | 2800 nM
O=C(O)COc1ccc(C(=O)CNC(=O)c2cc3c(s2)CCNC3)nc1 [Example 44, 2-[[4,5,6,7-tetrahydrothieno[3,2-c]pyridin-2-yl)carbonylamino]acetyl]pyridin-5-yloxyacetic acid trifluoroacetate] | 720 nM
O=C(O)COc1ccc(C(O)CNC(=O)c2cc3c(s2)CCNC3)cc1OCC(=O)O (centres unmarked) [Example 45, [[4-[[2-[(4,5,6,7-tetrahydrothieno[3,2-c]pyridin-2-yl)carbonyl]amino]-1-hydroxyethyl]-o-phenylene]dioxy]diacetic acid trifluoroacetate] | 460 nM
O=C(O)COc1ccc(-c2nc(C(=O)c3cc4c(s3)CCNC4)cs2)cc1 [Example 47, 4-[[4-(4,5,6,7-tetrahydrothieno[3,2-c]pyridin-2-yl)carbonyl]thiazol-2-yl]phenoxyacetic acid trifluoroacetate] | 6400 nM
CCCCOC(=O)COc1ccc(C(=O)CNC(=O)c2cc3c(s2)CCNC3)cc1OCC(=O)OCCCC [Example 56, Di-n-butyl [[4-[[[(4,5,6,7-tetrahydrothieno [3,2-c]pyridin-2-yl)carbonyl]amino]acetyl]-o-phenylene]dioxy]diacetate trifluoroacetate] | 1100 nM
O=C(COc1ccc(C(=O)CNC(=O)c2cc3c(s2)CCNC3)cc1OCC(=O)OC1CCCCC1)OC1CCCCC1 [Example 57, Dicyclohexyl [[4-[[[(4,5,6,7-tetrahydrothieno[3,2-c]pyridin-2-yl)carbonyl]amino]acetyl]-o-phenylene]dioxy]diacetate] | 3200 nM
CN(CC(=O)c1ccc(OCC(=O)O)c(OCC(=O)O)c1)C(=O)[C@H]1CC[C@H](C(=N)N)CC1 [Example 58, [[4-[[[trans-4-amidinocyclohexyl]carbonyl-N-methylamino]acetyl]-o-phenylene]dioxy]diacetic acid trifluoroacetate] | 140 nM

same assay, conditions: Platelet, inhibition rate at 10^-6 M, ADP 5 μM inducer

SMILES | inhibition at 1 µM
NC[C@H]1CC[C@H](C(=O)NCC(=O)c2ccc(OCC(=O)O)c(OCC(=O)O)c2)CC1 [Example 1, [[4-[[[trans-4-(aminomethyl)cyclohexyl]carbonylamino]acetyl]-o-phenylene]dioxy]diacetic acid trifluoroacetate] | 68%

same assay, conditions: platelet aggregation, ADP 5 μM inducer

SMILES | IC50
O=C(O)COc1ccc(C(=O)CNC(=O)c2cc3c(s2)CCNC3)cc1OCC(=O)O [Example 29, [[4-[[[(4,5,6,7-tetrahydrothieno[3.2-c]pyridin-2-yl)carbonyl]amino]acetyl]-o-phenylene]dioxy]diacetic acid trifluoroacetate] | 230 nM

biological target: T1, human platelet GPIIb/IIIa (Homo sapiens, UniProt P05106+P08514); assay: Pharmacological test 2: inhibition of fibrinogen bonding to platelet GPIIb/IIIa (solid phase assay, biotinylated fibrinogen); assay type: binding; details: fibrinogen bonding to GPIIb/IIIa
T1 construct: platelets collected from healthy adults; from tissue; host or cells: platelets from healthy adults (solubilized with octylglucoside, purified on GRGDSPK-Sepharose)
T1 sequence (P08514 32-887 limits assumed): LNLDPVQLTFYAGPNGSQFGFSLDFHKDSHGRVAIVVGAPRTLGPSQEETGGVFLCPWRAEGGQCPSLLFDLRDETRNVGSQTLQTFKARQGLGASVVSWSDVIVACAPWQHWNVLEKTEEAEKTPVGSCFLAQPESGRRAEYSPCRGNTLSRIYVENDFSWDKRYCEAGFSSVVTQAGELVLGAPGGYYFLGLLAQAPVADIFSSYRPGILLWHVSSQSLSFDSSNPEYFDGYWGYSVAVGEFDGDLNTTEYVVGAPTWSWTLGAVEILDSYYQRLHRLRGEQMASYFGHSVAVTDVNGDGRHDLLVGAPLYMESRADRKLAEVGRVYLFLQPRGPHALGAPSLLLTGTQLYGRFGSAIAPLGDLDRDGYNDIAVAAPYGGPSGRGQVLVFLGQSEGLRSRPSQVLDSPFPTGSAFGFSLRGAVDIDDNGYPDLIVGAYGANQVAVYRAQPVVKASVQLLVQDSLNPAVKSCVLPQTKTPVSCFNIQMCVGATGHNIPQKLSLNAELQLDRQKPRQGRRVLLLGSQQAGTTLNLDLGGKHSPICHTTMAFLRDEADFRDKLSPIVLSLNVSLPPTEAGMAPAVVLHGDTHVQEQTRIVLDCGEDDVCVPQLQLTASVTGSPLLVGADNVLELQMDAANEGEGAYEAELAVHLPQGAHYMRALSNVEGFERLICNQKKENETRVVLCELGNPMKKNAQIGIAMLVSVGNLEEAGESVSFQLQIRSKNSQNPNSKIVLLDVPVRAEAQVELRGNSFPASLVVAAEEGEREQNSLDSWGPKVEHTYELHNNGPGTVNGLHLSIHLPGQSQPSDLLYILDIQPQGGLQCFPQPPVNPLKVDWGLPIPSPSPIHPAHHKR
T1 sequence (P08514 891-1039 limits assumed): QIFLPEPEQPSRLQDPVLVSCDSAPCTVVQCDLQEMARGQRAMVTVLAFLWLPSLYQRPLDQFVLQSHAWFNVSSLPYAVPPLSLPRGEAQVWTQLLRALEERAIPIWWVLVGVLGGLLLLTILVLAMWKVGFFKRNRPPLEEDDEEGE
T1 sequence (P05106 27-788): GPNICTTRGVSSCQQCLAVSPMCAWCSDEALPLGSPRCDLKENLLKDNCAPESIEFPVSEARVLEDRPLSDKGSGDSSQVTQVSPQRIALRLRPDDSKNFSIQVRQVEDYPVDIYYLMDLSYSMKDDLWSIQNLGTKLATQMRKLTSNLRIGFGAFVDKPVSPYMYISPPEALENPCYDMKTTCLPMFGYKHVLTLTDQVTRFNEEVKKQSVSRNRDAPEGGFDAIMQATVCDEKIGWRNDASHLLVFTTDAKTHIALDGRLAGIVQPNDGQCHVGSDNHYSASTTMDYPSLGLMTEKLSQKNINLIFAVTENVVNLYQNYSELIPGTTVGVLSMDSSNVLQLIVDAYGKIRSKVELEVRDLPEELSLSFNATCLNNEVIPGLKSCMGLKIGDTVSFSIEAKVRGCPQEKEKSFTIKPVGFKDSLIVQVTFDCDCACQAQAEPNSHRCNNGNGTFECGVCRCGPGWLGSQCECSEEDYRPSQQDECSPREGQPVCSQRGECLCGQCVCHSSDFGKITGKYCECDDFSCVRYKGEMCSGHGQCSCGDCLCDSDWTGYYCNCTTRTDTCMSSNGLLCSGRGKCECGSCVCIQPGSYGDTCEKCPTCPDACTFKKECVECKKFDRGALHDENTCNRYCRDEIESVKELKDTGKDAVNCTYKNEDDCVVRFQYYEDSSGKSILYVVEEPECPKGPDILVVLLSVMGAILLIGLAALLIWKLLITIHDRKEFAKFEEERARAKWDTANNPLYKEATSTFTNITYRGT
Description: Inhibiting effect of the compound according to the present invention on the binding of platelet GPIIb/IIIa and fibrinogen was examined with a solid phase human platelet GPIIb/IIIa bonding assay using biotinylated fibrinogen as a ligand. Human platelet GPIIb/IIIa was purified according to the method described by Pytela, R. et al. (Science, 231, 1559-1561 (1986)). […] The same amount of TBS containing 50 mM octylglucoside and 2 mM PMSF was added to the pellet obtained in order to solubilize the membrane protein at 4° C. for 20 minutes. […] The solubilized protein solution was adsorbed on a GRGDSPK-Sepharose column which had been equilibrated with TBS (Buffer A) containing 50 mM Octylglucoside, 1 mM CaCl2 and MgCl2. After the column was washed with Buffer A, the adsorbed GPIIb/IIIa was eluted with Buffer A containing 2 mM GRGDSP peptide. GRGDSPK-Sepharose was prepared by coupling GRGDSPK peptide and CNBr-activated Sepharose 4B (Pharmacia) according to the instruction of the manufacturer. Then, solid phase human platelet GPIIb/IIIa bonding assay was carried out according to the method of Mori et al. […] Purified human platelet GPIIb/IIIa was adjusted in an amount of 2 μg/ml and adsorbed in an amount of 50 μl on a 96 well-microtiter plate at 4° C. overnight. After washing with TBS containing 1 mM CaCl2 and 1 mM MgCl2, 100 μl of 1% bovine serum albumin was added, blocking was conducted at 4° C. overnight. […] After washing with TBS-Tween 20, 50 μl of peroxidase labelled avidin which had been diluted with TBS to 4,000 times was added. The reaction was continued for 20 minutes. […] A 50 μl portion of a 0.1M citrate buffer containing 0.05% NaN3 was added to stop the reaction, and absorbance at 415 nm was measured. The rate of Bonding inhibition was calculated from the following formula: [formula]

SMILES | IC50
O=C(O)CCc1ccc(C(=O)CNC(=O)c2cc3c(s2)CCNC3)cc1 [Example 20, 3-[4-[[(4,5,6,7-tetrahydrothieno[3,2-c]pyridin-2-yl)carbonyl]aminoacetyl]phenyl]propionic acid trifluoroacetate] | 34 µM

same assay, conditions: inhibition rate at 10^-5 M

SMILES | inhibition at 10 µM
NC[C@H]1CC[C@H](C(=O)NCC(=O)c2ccc(OCC(=O)O)c(OCC(=O)O)c2)CC1 [Example 1, [[4-[[[trans-4-(aminomethyl)cyclohexyl]carbonylamino]acetyl]-o-phenylene]dioxy]diacetic acid trifluoroacetate] | 51%
